In patent US11420970B1 (NOVARTIS AG, priority 2019, dated 2022):
Read-outs that look alike come from different tables or passages of the source.

Assays:
[1] = test system: cellular H3K36me2 level in thyroid carcinoma cell line CGTH-W-1 (NSD2 E1099K); test: H3K36me2 cellular ELISA assay in CGTH-W-1 line; format: cell-based; conditions: Homo sapiens, CGTH-W-1, 72 h, read-out: H3K36me2 ELISA in CGTH-W-1
Protocol: H3K36Me2 Cellular ELISA Assay in CGTH-W-1 Line
An ELISA (enzyme-linked immunosorbent assay) based assay was used to test the ability of candidate compound to reduce cellular H3K36me2 level in thyroid carcinoma cell line CGTH-W-1, carrying NSD2 E1099K gain of function mutation. CGTH-W-1 (DSMZ) cells are maintained in RPM11640 media with 10% FBS and 50 U/ml Penicillin-Streptomycin.
Cells were treated with tested compounds at the desired concentration for 72 hours.
Histone bound plates were washed and blocked with 5% BSA. […] The abundance of H3K36me2 and total H3 was measured by Chemiluminesce on a plate reader. Cell viability was monitored on a parallel seeded plate with CellTiter-Glo reagent (Promega #G7573).

NSD2 [1-1365] = NSD2 [1-1365] (Homo sapiens (Human), UniProt O96028); test: LC-MS/MS-based NSD2 enzymatic assay (SAH production); format: biochemical
Chain of NSD2 [1-1365] (O96028 whole entry): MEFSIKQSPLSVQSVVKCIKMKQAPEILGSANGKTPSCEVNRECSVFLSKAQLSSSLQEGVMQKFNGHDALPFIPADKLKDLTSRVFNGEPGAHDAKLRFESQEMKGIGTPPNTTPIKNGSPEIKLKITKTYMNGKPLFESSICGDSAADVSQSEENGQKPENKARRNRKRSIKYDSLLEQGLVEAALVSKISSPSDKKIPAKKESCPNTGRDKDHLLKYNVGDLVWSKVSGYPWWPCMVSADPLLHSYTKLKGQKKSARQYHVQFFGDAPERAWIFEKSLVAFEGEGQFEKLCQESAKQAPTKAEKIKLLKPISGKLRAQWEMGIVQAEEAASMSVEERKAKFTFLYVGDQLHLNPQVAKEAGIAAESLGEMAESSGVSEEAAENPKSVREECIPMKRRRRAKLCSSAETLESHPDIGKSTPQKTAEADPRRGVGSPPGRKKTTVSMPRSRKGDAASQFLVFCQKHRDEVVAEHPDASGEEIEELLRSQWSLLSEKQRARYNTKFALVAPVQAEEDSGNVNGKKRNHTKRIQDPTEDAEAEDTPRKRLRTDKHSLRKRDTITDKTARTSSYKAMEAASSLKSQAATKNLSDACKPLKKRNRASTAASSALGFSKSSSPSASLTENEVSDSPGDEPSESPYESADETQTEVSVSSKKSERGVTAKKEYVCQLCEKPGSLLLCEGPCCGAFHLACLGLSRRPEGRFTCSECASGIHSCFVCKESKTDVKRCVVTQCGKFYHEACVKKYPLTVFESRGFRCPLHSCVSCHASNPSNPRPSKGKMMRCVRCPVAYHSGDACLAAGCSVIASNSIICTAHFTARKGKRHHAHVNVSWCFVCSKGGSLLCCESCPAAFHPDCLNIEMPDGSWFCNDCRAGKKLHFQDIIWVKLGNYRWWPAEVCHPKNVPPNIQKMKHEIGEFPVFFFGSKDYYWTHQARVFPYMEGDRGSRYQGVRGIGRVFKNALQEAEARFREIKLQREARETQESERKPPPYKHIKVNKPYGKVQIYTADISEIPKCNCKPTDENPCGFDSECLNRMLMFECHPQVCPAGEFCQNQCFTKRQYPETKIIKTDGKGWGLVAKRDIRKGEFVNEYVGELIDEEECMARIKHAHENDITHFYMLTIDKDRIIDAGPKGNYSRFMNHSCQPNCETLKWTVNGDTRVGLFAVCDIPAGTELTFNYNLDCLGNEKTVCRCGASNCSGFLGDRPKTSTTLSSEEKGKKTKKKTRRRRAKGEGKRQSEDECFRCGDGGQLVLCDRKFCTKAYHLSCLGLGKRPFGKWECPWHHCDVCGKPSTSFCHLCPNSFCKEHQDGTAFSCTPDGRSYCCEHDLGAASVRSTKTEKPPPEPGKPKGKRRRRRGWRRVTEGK
Procedure, shortened: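 SAH formed was measured by LC-MS/MS using d4-SAH as internal standard and an SAH calibration curve. Compounds were preincubated 20 min with NSD2 [1-1365] and SAM; mouse-liver nucleosome then started a 90 min room-temperature reaction (8 nM enzyme, 1 μM SAM, 400 nM nucleosome final, pH 8.0), stopped with TFA.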

[2] = test system: cellular H3K36me2 level in multiple myeloma cell line KMS11 (t(4;14)+); test: H3K36me2 cellular ELISA assay in KMS11-Par line; format: cell-based; conditions: Homo sapiens, KMS-11, ELISA, read-out: H3K36me2 ELISA in KMS11-Par
Procedure, shortened: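 After 72 h compound exposure, HCl-extracted histones from KMS11 (t(4;14)+) cells were probed by ELISA for H3K36me2 against total H3 with a chemiluminescence read-out. Cells were plated at 1,250/well in Opti-MEM plus B-27 and N2 the day before. A parallel CellTiter-Glo plate tracked viability.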

[3] = NSD2 biochemical activity, class symbols, read-out: NSD2 IC50
[4] = KMS11-Par line (t(4;14)+), 72 hours treatment

SMILES | IC50 [1] | IC50 (NSD2 [1-1365]; [3]) | IC50 [2, 4] | IC50 (NSD2 [1-1365]; read-out: NSD2 IC50) | IC50 ([2]; KMS11-Par line, 72 hours) | IC50 (NSD2 [1-1365]; NSD2 IC50)
Nc1ncnc2c1ncn2Cc1cc(-c2cc(F)c(F)cc2F)ncc1N1CCC[C@](N)([C@H](O)C(F)F)C1 [Example 157, (S)-1-((R)-3-amino-1-(4-((6-amino-9H-purin-9-yl)methyl)-6-(2,4,5-trifluorophenyl)pyridin-3-yl)piperidin-3-yl)-2,2-difluoroethan-1-ol] | 385 nM | 1 to 10 nM | 1310 nM | – | – | –
COc1ccc(-c2cc(Cn3cnc4c(N)ncnc43)c(N3CCC[C@](N)([C@@H](C)O)C3)cn2)cc1F [Example 90, (R)-1-((R)-3-amino-1-(4-((6-amino-9H-purin-9-yl)methyl)-6-(3-fluoro-4-methoxyphenyl)pyridin-3-yl)piperidin-3-yl)ethan-1-ol] | 239 nM | 1 to 10 nM | 432 nM | – | – | –
Nc1ncnc2c1ncn2Cc1cc(C2CCCCC2)ncc1N1CCC[C@](N)([C@H](O)C(F)F)C1 [Example 145, (S)-1-((R)-3-amino-1-(4-((6-amino-9H-purin-9-yl)methyl)-6-cyclohexylpyridin-3-yl)piperidin-3-yl)-2,2-difluoroethan-1-ol] | 990 nM | 10 to 1000 nM | 8110 nM | – | – | –
Nc1ncnc2c1ncn2Cc1cc(-c2ccc(F)c(F)c2)ncc1N1CCCC(N)(C(=O)C2CCOCC2)C1 (stereo not drawn) [Example 108, (3-amino-1-(4-((6-amino-9H-purin-9-yl)methyl)-6-(3,4-difluorophenyl)pyridin-3-yl)piperidin-3-yl)(tetrahydro-2H-pyran-4-yl)methanone] | 772 nM | 10 to 1000 nM | 1960 nM | – | – | –
Nc1ncnc2c1ncn2Cc1cc(-c2ccc(F)cn2)ncc1N1CCC[C@](N)(c2cccc(Cl)n2)C1 [Example 196, (R)-9-((5-(3-amino-3-(6-chloropyridin-2-yl)piperidin-1-yl)-5′-fluoro-[2,2′-bipyridin]-4-yl)methyl)-9H-purin-6-amine] | 637 nM | – | – | 10 to 1000 nM | 2690 nM | –
CC1(C(=O)C2(N)CCCN(c3cnc(-c4ccc(F)c(F)c4)cc3Cn3cnc4c(N)ncnc43)C2)CC1 (stereo not drawn) [Example 107, (3-amino-1-(4-((6-amino-9H-purin-9-yl)methyl)-6-(3,4-difluorophenyl)pyridin-3-yl)piperidin-3-yl)(1-methylcyclopropyl)methanone] | 446 nM | 10 to 1000 nM | 3020 nM | – | – | –
Nc1ncnc2c1ncn2Cc1cc(-c2cnc(F)c(F)c2)ncc1N1CCCC(N)(c2cccc(Cl)n2)C1 (stereo not drawn) [Example 240, 9-((5-(3-amino-3-(6-chloropyridin-2-yl)piperidin-1-yl)-5′,6′-difluoro-[2,3′-bipyridin]-4-yl)methyl)-9H-purin-6-amine] | 821 nM | – | – | 10 to 1000 nM | 5930 nM | –
Nc1ncnc2c1ncn2Cc1cc(-c2cc(F)c(C(F)F)cc2F)ncc1N1CCC[C@](N)([C@@H](O)C(F)F)C1 [Example 134, (R)-1-((R)-3-amino-1-(4-((6-amino-9H-purin-9-yl)methyl)-6-(4-(difluoromethyl)-2,5-difluorophenyl)pyridin-3-yl)piperidin-3-yl)-2,2-difluoroethan-1-ol] | 601 nM | 10 to 1000 nM | 830 nM | – | – | –
Nc1ncnc2c1ncn2Cc1cc(-c2ccc(F)c(F)c2F)ncc1N1CCC[C@](N)([C@@H](O)C(F)F)C1 [Example 172, (R)-1-((R)-3-amino-1-(4-((6-amino-9H-purin-9-yl)methyl)-6-(2,3,4-trifluorophenyl)pyridin-3-yl)piperidin-3-yl)-2,2-difluoroethan-1-ol] | 1200 nM | – | – | 10 to 1000 nM | 8930 nM | –
Nc1ncnc2c1ncn2Cc1cc(-c2cc(F)c(F)cc2F)ncc1N1CCC[C@](N)([C@@H]2COCCO2)C1 [Example 290, 9-((5-((R)-3-amino-3-((R)-1,4-dioxan-2-yl)piperidin-1-yl)-2-(2,4,5-trifluorophenyl)pyridin-4-yl)methyl)-9H-purin-6-amine] | 421 nM | – | – | 10 to 1000 nM | 954 nM | –
COc1cc(F)c(-c2cc(Cn3cnc4c(N)ncnc43)c(N3CCC[C@](N)([C@H](O)C(F)F)C3)cn2)cc1F [Example 161, (S)-1-((R)-3-amino-1-(4-((6-amino-9H-purin-9-yl)methyl)-6-(2,5-difluoro-4-methoxyphenyl)pyridin-3-yl)piperidin-3-yl)-2,2-difluoroethan-1-ol] | 73 nM | 1 to 10 nM | 502 nM | – | – | –
Cn1ncc2cc(-c3cc(Cn4cnc5c(N)ncnc54)c(N4CCC[C@](N)([C@@H](O)C(F)F)C4)cn3)c(F)cc21 [Example 123, (R)-1-((R)-3-amino-1-(4-((6-amino-9H-purin-9-yl)methyl)-6-(6-fluoro-1-methyl-1H-indazol-5-yl)pyridin-3-yl)piperidin-3-yl)-2,2-difluoroethan-1-ol] | 1490 nM | 1 to 10 nM | 7850 nM | – | – | –
Nc1ncnc2c1ncn2Cc1cc(-c2ccc(F)cc2)ncc1N1CCC[C@](N)(c2ccc(F)c(Cl)n2)C1 [Example 221, (R)-9-((5-(3-amino-3-(6-chloro-5-fluoropyridin-2-yl)piperidin-1-yl)-2-(4-fluorophenyl)pyridin-4-yl)methyl)-9H-purin-6-amine] | 269 nM | – | – | 1 to 10 nM | 1290 nM | –
Nc1ncnc2c1ncn2Cc1cc(-c2ccc(OC(F)F)cc2F)ncc1N1CCC[C@](N)([C@@H](O)C(F)F)C1 [Example 138, (R)-1-((R)-3-amino-1-(4-((6-amino-9H-purin-9-yl)methyl)-6-(4-(difluoromethoxy)-2-fluorophenyl)pyridin-3-yl)piperidin-3-yl)-2,2-difluoroethan-1-ol] | 132 nM | 10 to 1000 nM | 1570 nM | – | – | –
Nc1ncnc2c1ncn2Cc1cc(-c2ccc(F)cn2)ncc1N1CCC[C@](N)([C@@H](O)C(F)F)C1 [Example 155, (R)-1-((R)-3-amino-1-(4-((6-amino-9H-purin-9-yl)methyl)-5′-fluoro-[2,2′-bipyridin]-5-yl)piperidin-3-yl)-2,2-difluoroethan-1-ol] | 1170 nM | 10 to 1000 nM | 16400 nM | – | – | –
Cn1ncc([C@@]2(N)CCCN(c3cnc(-c4ccc(F)c(F)c4)cc3Cn3cnc4c(N)ncnc43)C2)n1 [Example 283, (R)-9-((5-(3-amino-3-(2-methyl-2H-1,2,3-triazol-4-yl)piperidin-1-yl)-2-(3,4-difluorophenyl)pyridin-4-yl)methyl)-9H-purin-6-amine] | 110 nM | – | – | – | 1020 nM | 1 to 10 nM
COc1c(F)cc(-c2cc(Cn3cnc4c(N)ncnc43)c(N3CCC[C@](N)(c4cccc(Cl)n4)C3)cn2)cc1F [Example 233, (R)-9-((5-(3-amino-3-(6-chloropyridin-2-yl)piperidin-1-yl)-2-(3,5-difluoro-4-methoxyphenyl)pyridin-4-yl)methyl)-9H-purin-6-amine] | 341 nM | – | – | 1 to 10 nM | 1100 nM | –
Nc1ncnc2c1ncn2Cc1cc(-c2ccc(F)c(F)c2)ncc1N1CC[C@@H](O)[C@@H](N)C1 [Example 3, (3S,4R)-3-amino-1-(4-((6-amino-9H-purin-9-yl)methyl)-6-(3,4-difluorophenyl)pyridin-3-yl)piperidin-4-ol] | 8250 nM | 10 to 1000 nM | 33300 nM | – | – | –
Nc1ncnc2c1ncn2Cc1cc(-c2cc(F)c(F)cc2F)ncc1N1CCC[C@](N)([C@@H](F)CO)C1 [Example 286, (R)-2-((R)-3-amino-1-(4-((6-amino-9H-purin-9-yl)methyl)-6-(2,4,5-trifluorophenyl)pyridin-3-yl)piperidin-3-yl)-2-fluoroethan-1-ol] | 5.9 nM | – | – | 1 to 10 nM | 655 nM | –
C#C[C@@]1(N)CCCN(c2cnc(-c3ccc(F)c(F)c3)cc2Cn2cnc3c(N)ncnc32)C1 [Example 304, (S)-9-((5-(3-amino-3-ethynylpiperidin-1-yl)-2-(3,4-difluorophenyl)pyridin-4-yl)methyl)-9H-purin-6-amine] | 101 nM | – | – | 10 to 1000 nM | 592 nM | –
COc1ccc(-c2cc(Cn3cnc4c(N)ncnc43)c(N3CCC[C@](N)(C(O)C(F)F)C3)cn2)c(C(F)(F)F)c1 (stereo in doubt) [Example 167, (R)-1-((R)-3-amino-1-(4-((6-amino-9H-purin-9-yl)methyl)-6-(4-methoxy-2-(trifluoromethyl)phenyl)pyridin-3-yl)piperidin-3-yl)-2,2-difluoroethan-1-ol] | 559 nM | – | – | 10 to 1000 nM | 6120 nM | –
CC(C(=O)C1(N)CCCN(c2cnc(-c3ccc(F)c(F)c3)cc2Cn2cnc3c(N)ncnc32)C1)C1CC1 (stereo not drawn) [Example 103, 1-(3-amino-1-(4-((6-amino-9H-purin-9-yl)methyl)-6-(3,4-difluorophenyl)pyridin-3-yl)piperidin-3-yl)-2-cyclopropylpropan-1-one] | 138 nM | 10 to 1000 nM | 379 nM | – | – | –
